# Entries after “also recorded” stand apart in the source; their conditions may differ.
# Columns and labels:
# [1] = tested on: GFP-LC3-expressing hepatocytes; experiment: Hepatocyte autophagy activation (GFP-LC3 dots); format: cell-based; conditions: GFP-LC3 mouse hepatocytes, peptide 10 µg/mL, with leupeptin
# Experimental: […] Leupeptin (100 μM) was added 4 h before fixation. Cells were stained with Hoechst 33342 solution (Thermo Scientific™, #62249, 1 µg/mL) and fixed with 4% paraformaldehyde (PFA) solution. Both blue (Hoechst-derived) and green (GFP-LC3-derived) fluorescence were imaged using a Zeiss LSM 710 confocal microscope. Images were analyzed using R software.
# Hepatocytes were isolated from 4 transgenic mice expressing microtubule- associated proteins 1A/1B light chain 3B (hereafter referred to as LC3) fused to green fluorescent protein (GFP) (resulting fusion protein: LC3-GFP) under a ubiquitous promoter. Such oligo- or monocellular hepatocyte suspensions were cultured in the continuous presence of leupeptin at 37°C in the absence (A) or presence (B) of the GABAARγ2- EP- WT […]
# Cells were counterstained with Hoechst
# 33342 and representative fluorescence images are shown (bar size: 10 µm). The number of LC3-GFP+ dots per cells (defined as an area of interest around the 1 or 2 Hoechst 33342- positive nuclei per cell) were determined by image analysis and plotted in C .
# Results are shown as means ± standards of the mean, and statistics were calculated with […]
# [2] = tested on: liver autophagy, C57BL/6 mice; experiment: Liver autophagy activation in vivo (LC3 lipidation); parameters: species or system mouse; conditions: C57BL/6 male mice, peptide 5 mg/kg i.v. 4 h and 30 min before sacrifice, with or without leupeptin 30 mg/kg i.p., LC3 immunoblot, n = 5
# Experimental: Ten-week-old C57BL/6 male mice were injected with GABAARγ2 peptides (5 mg/kg, i.v., dissolved in PBS) 4 h and 30 min before sacrifice. For inhibition of the autophagy flux, leupeptin (Leu, 30 mg/kg B.W., dissolved in PBS) was injected 2 h before sacrifice via an intraperitoneal (i.p.) injection. Control animals were i.v. injected with the vehicle (DMSO, 0.01%) and i.p. injected with PBS. All animals were sacrificed, and livers were snap-frozen in liquid nitrogen and stored at −80 °C.
# Protein lysates were prepared from liver, epididymal white adipose tissue (eWAT), brown adipose tissue (BAT), muscle, heart or Hep55.1c cells. Immunoblot analysis was performed for GABAARγ2 (Abcam #ab87328), mouse ACBP/DBI (Abcam, #ab231910), Human ACBP (Santa-Cruz #sc-376853), MAP1LC3B (#2775, Cell Signaling Technologies), and β-actin (Abcam, #ab49900), as previously described..
# [3] = tested on: native ACBP/DBI protein (mouse liver extracts); experiment: Pull down / immunoprecipitation of native ACBP/DBI from liver extracts; format: binding; conditions: mouse liver protein extract (500 μg), peptide-coated beads, overnight 4 °C, immunoblot for ACBP
# Experimental: The physical interaction between the native ACBP and GABAARγ2 peptides was examined by standard immunoprecipitation (IP) and immunoblotting protocols. In detail, liver protein extracts (500 μg) were immunoprecipitated on protein A/G-Sepharose beads (Merck Millipore, Burlington, MA, USA, #GE17-0618-01) coated with (1× 2× 4×) either GABAARγ2 wild type (WT) or mutated (F77I) eicosapeptide (Biosynth ltd) or its negative control (PBS). Each IP reaction was incubated overnight (4 °C) in a rotation chamber followed by three consecutive rounds of PBS washing the next day. Each washing round included a PBS resuspension of the pellet and a re-centrifugation (12,000 × g, 4 °C). Finally, beads were resuspended in 20 μL of NUPAGE 4× buffer (Life Technologies, CA, USA, #NP0008), heated at 100 °C (10 min), followed by standard immunoblotting for the ACBP protein (Abcam #ab231910).
# Fig. 5 Biophysical and biochemical detection of a direct interaction between ACBP/DBI and the GABAARγ2-derived eicosapeptide. A Schematic representation of the GABAAR and the GABAARγ2-derived eicosapeptides. B Surface plasmon resonance kinetics of ACBP-GABAARγ2-derived eicosapeptide (WT and F77I) interactions. Representative ACBP immunoblot (C) from control- or GABAARγ2-immunoprecipitated samples. Anti-GABAARγ2 immunoprecipitation (IP) assay was employed in order to validate the GABAARγ2 WT peptide interaction with native ACBP (in murine hepatic protein extracts), and quantification (D). […] For statistical analysis p value (indicating statistical comparisons with the control condition) was calculated by Mann–Whitney U-test. E Anti-GABAARγ2 IP assay to address the physical interaction between GABAARγ2 peptides and murine hepatic ACBP protein. Interaction was validated using an increasing gradient of biotinylated WT/F77I peptides that were bound on the surface of streptavidin beads as part of the IP assay. […]
# [4] = listed as GABAARγ2-derived eicosapeptide
sequence,measurement,setting,value
INMEYTIDIFFAQTWYDRRL [GABAARγ2-EP-WT],capacity to enhance autophagic flux,[1],enhance autophagic flux
same,number of LC3-GFP dots per cell,[1]; confocal microscopy,increased the number of LC3-GFP dots
same,activation of autophagy in the liver,[2],activation of autophagy in the liver was induced
same,activation of autophagy in the liver,[2]; [4],induced autophagy in the liver
same,"pull down of endogenous/native ACBP/DBI, in words",[3],efficiently interacts with native and recombinant ACBP/DBI; also recorded: able to interact with ACBP/DBI
same,"pull down of endogenous/native ACBP/DBI, in words",[3]; [4],validated the interaction
